This passage reports Activity results from ChEMBL document CHEMBL1158106, “Penifulvins B-E and a silphinene analogue: sesquiterpenoids from a fungicolous isolate of Penicillium griseofulvum” (J Nat Prod, 2006).

Each structure is given as a SMILES string. Calls of active or inactive are those of the source. The rule behind the calls is not given here.

Holding throughout (format): functional, organism-based
For one assay, the system named is Staphylococcus aureus. The assay is described as follows: Antibacterial activity against Staphylococcus aureus ATCC 29213 at 100 ug/disk by agar disk diffusion assay.
The next assay has as its system Candida albicans. Description: Antifungal activity against Candida albicans ATCC 14053 at 100 ug/disk by agar disk diffusion assay. (In general: In agar diffusion tests the substance spreads into inoculated agar from a disc or well.)
A further assay deals with Aspergillus flavus. The assay is described as follows: Antifungal activity against Aspergillus flavus NRRL 6541 at 100 ug/disk by agar disk diffusion assay.
Another assay concerns Bacillus subtilis. The assay is described as follows: Antibacterial activity against Bacillus subtilis ATCC 6051 at 100 ug/disk by agar disk diffusion assay.
The subject of a further assay is Spodoptera frugiperda. Description: Insecticidal activity against Spodoptera frugiperda at 100 ug/disk.

For `C[C@@]1(CO)C[C@]2(C)CC(=O)O[C@H]3OC(=O)[C@@H]4CC[C@@H]1[C@]342`, the outcome in the assay with Staphylococcus aureus, in the assay with Candida albicans, in the assay on Aspergillus flavus, in the assay on Bacillus subtilis and with Spodoptera frugiperda was inactive.

Consider `CC1(C)C[C@]2(C)CC(=O)O[C@H]3OC(=O)[C@@H]4CC[C@@H]1[C@]342`, for which, in the assay with Spodoptera frugiperda, the result was Active.

With `C[C@@]1(CO)C[C@]2(C)CC=C[C@]23[C@H](C(=O)O)CC[C@@H]13`, the result in the assay on Staphylococcus aureus, in the assay on Candida albicans, in the assay with Aspergillus flavus, with Bacillus subtilis and with Spodoptera frugiperda was inactive.
